Where two headings read alike, the source gives them in different places.
Assay: Effect of filament density, poration energy and filament array size on PK profile (Examples 7-9)
Design: species or system guinea pigs
Conditions: guinea pig, in vivo; for bioavailability: sc, relative bioavailability against SC injection, read-out: Bioavailability ± SE; for AUC / Cmax / Tmax: topical or ocular
Experimental: This example describes various effects of filament density. To investigate the effect of filament density on PK profile and side effects (pain by poration and skin irritation), these studies were conducted. The filament density mainly affects the area to be utilized for the transfer of body fluid and ingredients in between skin and patch. The range of filament density was 100 filaments/cm^2 to 400 filaments/cm^2, and the poration energy was from 3 to 4 mJ/filament.
This example describes various effects to heating energy. The poration energy is related to the pore shape such as depth and width.
This example describes the selection of a desirable filament array size. Assuming the higher dose than 2 mg dose with the conditions 400 filaments/cm^2 filament density and 4 or 5 mJ/filament energy, filament array size may need to be made bigger. The range of dose was 0.5 to 4 mg, and the range of filament array size was 1.0 to 2.0 cm^2.

[1] = 0.5 mg, Table 17 #1: dose 0.50 mg, 4 mJ/filament, filament array area 1.0 cm^2, 400 filaments/cm^2
[2] = 2 mg, Table 13 # 1: 100 filaments/cm^2, 3 mJ/filament, area 1.0 cm^2, patch 2.00 mg Zolmitriptan
[3] = 2 mg, Table 13 # 2: 200 filaments/cm^2, 3 mJ/filament, area 1.0 cm^2, patch 2.00 mg Zolmitriptan
[4] = 2 mg, Table 13 # 3: 400 filaments/cm^2, 3 mJ/filament, area 1.0 cm^2, patch 2.00 mg Zolmitriptan
[5] = 2 mg, Table 13 # 4: 100 filaments/cm^2, 4 mJ/filament, area 1.0 cm^2, patch 2.00 mg Zolmitriptan
[6] = 2 mg, Table 13 # 5: 200 filaments/cm^2, 4 mJ/filament, area 1.0 cm^2, patch 2.00 mg Zolmitriptan
[7] = 2 mg, Table 13 # 6: 400 filaments/cm^2, 4 mJ/filament, area 1.0 cm^2, patch 2.00 mg Zolmitriptan
[8] = 2 mg, Table 15 # 1: 400 filaments/cm^2, 2 mJ/filament, area 1.0 cm^2, patch 2.00 mg Zolmitriptan
[9] = 2 mg, Table 15 # 2: 400 filaments/cm^2, 3 mJ/filament, area 1.0 cm^2, patch 2.00 mg Zolmitriptan
[10] = 2 mg, Table 15 # 3: 400 filaments/cm^2, 4 mJ/filament, area 1.0 cm^2, patch 2.00 mg Zolmitriptan
[11] = 2 mg, Table 15 # 4: 400 filaments/cm^2, 5 mJ/filament, area 1.0 cm^2, patch 2.00 mg Zolmitriptan
[12] = 2 mg, Table 17 # 2: dose 2.00 mg, 4 mJ/filament, filament array area 1.0 cm^2, 400 filaments/cm^2
[13] = 3 mg, Table 17 # 3: dose 3.00 mg, 4 mJ/filament, filament array area 1.0 cm^2, 400 filaments/cm^2
[14] = 4 mg, Table 17 # 4: dose 4.00 mg, 4 mJ/filament, filament array area 1.5 cm^2, 400 filaments/cm^2
[15] = 4 mg, Table 17 # 5: dose 4.00 mg, 4 mJ/filament, filament array area 2.0 cm^2, 400 filaments/cm^2
[16] = 4 mg, Table 17 # 6: dose 4.00 mg, 5 mJ/filament, filament array area 1.5 cm^2, 400 filaments/cm^2

## CN(C)CCc1c[nH]c2ccc(C[C@H]3COC(=O)N3)cc12 [Zolmitriptan]
0.5 mg, Table 17 #1: dose 0.50 mg, 4 mJ/filament, 1.0 cm^2, 400 filaments/cm^2
  bioavailability: 70.6 ± 4.5%
2 mg, Table 13 # 1: 100 filaments/cm^2, 3 mJ/filament, 1.0 cm^2, 2.00 mg patch
  bioavailability: 11.5 ± 0.6%
2 mg, Table 13 # 2: 200 filaments/cm^2, 3 mJ/filament, 1.0 cm^2, 2.00 mg patch
  bioavailability: 73.8 ± 8.6%
2 mg, Table 13 # 3: 400 filaments/cm^2, 3 mJ/filament, 1.0 cm^2, 2.00 mg patch
  bioavailability: 85 ± 5.6%
2 mg, Table 13 # 4: 100 filaments/cm^2, 4 mJ/filament, 1.0 cm^2, 2.00 mg patch
  bioavailability: 50.3 ± 5.5%
2 mg, Table 13 # 5: 200 filaments/cm^2, 4 mJ/filament, 1.0 cm^2, 2.00 mg patch
  bioavailability: 49.9 ± 7.7%
2 mg, Table 13 # 6: 400 filaments/cm^2, 4 mJ/filament, 1.0 cm^2, 2.00 mg patch
  bioavailability: 102 ± 13.3%
2 mg, Table 15 # 1: 400 filaments/cm^2, 2 mJ/filament, 1.0 cm^2, 2.00 mg patch
  bioavailability: 72.4 ± 10%
2 mg, Table 15 # 2: 400 filaments/cm^2, 3 mJ/filament, 1.0 cm^2, 2.00 mg patch
  bioavailability: 85 ± 5.6%
2 mg, Table 15 # 3: 400 filaments/cm^2, 4 mJ/filament, 1.0 cm^2, 2.00 mg patch
  bioavailability: 102 ± 13.3%
2 mg, Table 15 # 4: 400 filaments/cm^2, 5 mJ/filament, 1.0 cm^2, 2.00 mg patch
  bioavailability: 95.5 ± 5.3%
2 mg, Table 17 # 2: dose 2.00 mg, 4 mJ/filament, 1.0 cm^2, 400 filaments/cm^2
  bioavailability: 102 ± 13.3%
3 mg, Table 17 # 3: dose 3.00 mg, 4 mJ/filament, 1.0 cm^2, 400 filaments/cm^2
  bioavailability: 76 ± 4.9%
4 mg, Table 17 # 4: dose 4.00 mg, 4 mJ/filament, 1.5 cm^2, 400 filaments/cm^2
  bioavailability: 88.9 ± 4.6%
4 mg, Table 17 # 5: dose 4.00 mg, 4 mJ/filament, 2.0 cm^2, 400 filaments/cm^2
  bioavailability: 105 ± 7.9%
4 mg, Table 17 # 6: dose 4.00 mg, 5 mJ/filament, 1.5 cm^2, 400 filaments/cm^2
  bioavailability: 97.9 ± 12.3%
[1]
  AUC: 364 ± 23 ng·h/mL
  Cmax: 190 ± 34 ng/mL
  Tmax: 0.63 ± 0.13 h
[2]
  AUC: 238 ± 13 ng·h/mL
  Cmax: 60 ± 13 ng/mL
  Tmax: 2.75 ± 1.25 h
[3]
  AUC: 1520 ± 177 ng·h/mL
  Cmax: 520 ± 51 ng/mL
  Tmax: 1.31 ± 0.19 h
[4]
  AUC: 1750 ± 116 ng·h/mL
  Cmax: 487 ± 63 ng/mL
  Tmax: 1.63 ± 0.13 h
[5]
  AUC: 1040 ± 113 ng·h/mL
  Cmax: 222 ± 30 ng/mL
  Tmax: 2.75 ± 0.72 h
[6]
  AUC: 1030 ± 159 ng·h/mL
  Cmax: 423 ± 30 ng/mL
  Tmax: 0.81 ± 0.06 h
[7]
  AUC: 2100 ± 275 ng·h/mL
  Cmax: 896 ± 191 ng/mL
  Tmax: 1.06 ± 0.16 h
[8]
  AUC: 1490 ± 206 ng·h/mL
  Cmax: 484 ± 130 ng/mL
  Tmax: 2.33 ± 0.83 h
[9]
  AUC: 1750 ± 116 ng·h/mL
  Cmax: 487 ± 63 ng/mL
  Tmax: 1.63 ± 0.13 h
[10]
  AUC: 2100 ± 275 ng·h/mL
  Cmax: 896 ± 191 ng/mL
  Tmax: 1.06 ± 0.16 h
[11]
  AUC: 1970 ± 108 ng·h/mL
  Cmax: 752 ± 89 ng/mL
  Tmax: 1.33 ± 0.33 h
[12]
  AUC: 2100 ± 275 ng·h/mL
  Cmax: 896 ± 191 ng/mL
  Tmax: 1.06 ± 0.16 h
[13]
  AUC: 2350 ± 152 ng·h/mL
  Cmax: 756 ± 115 ng/mL
  Tmax: 1.63 ± 0.13 h
[14]
  AUC: 3660 ± 189 ng·h/mL
  Cmax: 1310 ± 129 ng/mL
  Tmax: 1.33 ± 0.17 h
[15]
  AUC: 4310 ± 315 ng·h/mL
  Cmax: 2200 ± 358 ng/mL
  Tmax: 1.25 ± 0.14 h
[16]
  AUC: 4030 ± 506 ng·h/mL
  Cmax: 1710 ± 185 ng/mL
  Tmax: 0.75 ± 0.14 h
